Laboratory results reported in US5798391A, “Injectable solution of benzalkonium fluoride” (Aromafarm Limited, priority 1994, dated 1998).
Where two headings read alike, the source gives them in different places.

Tests used:
guinea pigs = assay: LD 50, unique administration, Behrens and Karber method, guinea pigs; format: in vivo, albino guinea pig
Experimental: The high toxicity of benzalkonium fluoride in unique administration in mice and guinea pigs was determined by the Behrens and Karber method, by intracardiac, intravenous and intraperitoneal injection. The animals used were young adult albino mice and albino guinea pigs. Ten animals were used for each dose administered, five males and five females. The benzalkonium fluoride was used in a 3 g/l isotonic solution of sterile apyrogenic sodium chloride. We observed the animals for 7 days after unique administration carried out using a sterile needle adapted to a syringe graduated in 1/10 ml to allow the treatment of each animal with an exact dose. The animals were weighed each day during the observation period.
The LD 50 (lethal dose 50) was determined.

AIDS = conditions: person
[1] = test system: mycobacterium tuberculosis (wild strain); assay: activity in vitro on mycobacterium tuberculosis, B[…] medium surface impregnation method; format: cell-based; design: key to culture of Bacterium Tuberculosis: (+++): positive culture; (-): negative culture
Experimental: We determined the activity in vitro of benzalkonium fluoride on the mycobacterium tuberculosis (wild strain).
This experiment was carried out with the B[…] medium surface impregnation method. The quantity of active substance absorbed by the medium is expressed in cm^2.
The volume of the appropriate dilution of benzalkonium fluoride was 0.25 ml per tube of medium in order to arrive at concentrations of benzalkonium fluoride of 0.1, 0.2 and 0.3% per cm^2 surface of B[…] medium.
A control tube, without benzalkonium fluoride, was used for each of the series.
Three series of tests were carried out with dilutions of 0.1, 0.01 and 0.001 of the mother solution of the Bacterium Tuberculosis strain prepared at 1 mg/ml.
All the tests were carried out in double.

dogs (beagles) = conditions: dog, in vivo

Compound: CCCCCCCCCCCCCC[N+](C)(C)Cc1ccccc1.[F-] [benzalkonium fluoride, tetradecyl-dimethyl-benzyl-ammonium fluoride]
- LD 50 (guinea pigs; female guinea pig, intracardiac): 16.50 mg/mL
- LD 50 (guinea pigs; female guinea pig, intraperitoneal): 20.50 mg/mL
- LD 50 (guinea pigs; male guinea pig, intracardiac): 15.50 mg/mL
- LD 50 (guinea pigs; male guinea pig, intraperitoneal): 28.50 mg/mL
- pain at the injection point (AIDS; 50 ml at 2.1 g/l every twelve hours, end of second cure): pain at the injection point
- number of CD4 (AIDS; after treatment, before: less than 200): 600
- general state (AIDS; fourth month): returned to a normal general state
- general state (AIDS; one month and seven months after treatment): a good general state
- fever (AIDS; sixth day, 50 ml at 2.1 g/l every eight hours, three days, with Doxycycline): the fever had disappeared
- fever, vomiting and diarrhoea (AIDS; tenth day): disappearance of the fever, vomiting and diarrhoea
- general state (AIDS; tenth day, two cures of three days): a clear improvement in the general state
- weight after gain (AIDS; tenth day, before 57 kg): 59.6 kg
- fever (AIDS; third day, 2.1 g/l every twelve hours): a clear fall in the fever
- clinical symptoms (AIDS; three and a half months): no clinical symptoms
- general state (AIDS; three and a half months): a good general state
- weight (AIDS; three and a half months, before 52 kg): 56 kg
- number of CD4 (AIDS; three and a half months, before 200): 700
- mobility (AIDS; totally bedridden before): could get up and walk
- asthenia (AIDS; two months after start): progressive disappearance of the asthenia
- toxicity threshold (D.L.0) (VERO, KB and MCR-5 cells; after filtration): 0.01%
- toxicity threshold (D.L.0) (VERO, KB and MCR-5 cells; before filtration): 0.05%
- inhibition of the culture ([1]; 0.1, 0.2 and 0.3% per cm^2, dilutions 0.1, 0.01 and 0.001, four weeks at 37° C.): an inhibition of the culture
- culture of Bacterium Tuberculosis ([1]; BKF 0.1%/cm^2, BK dilution 0.001, in double): (-)
- culture of Bacterium Tuberculosis ([1]; BKF 0.1%/cm^2, BK dilution 0.01, in double): (-)
- culture of Bacterium Tuberculosis ([1]; BKF 0.1%/cm^2, BK dilution 0.1, in double): (-)
- culture of Bacterium Tuberculosis ([1]; BKF 0.2%/cm^2, BK dilution 0.001, in double): (-)
- culture of Bacterium Tuberculosis ([1]; BKF 0.2%/cm^2, BK dilution 0.01, in double): (-)
- culture of Bacterium Tuberculosis ([1]; BKF 0.2%/cm^2, BK dilution 0.1, in double): (-)
- culture of Bacterium Tuberculosis ([1]; BKF 0.3%/cm^2, BK dilution 0.001, in double): (-)
- culture of Bacterium Tuberculosis ([1]; BKF 0.3%/cm^2, BK dilution 0.01, in double): (-)
- culture of Bacterium Tuberculosis ([1]; BKF 0.3%/cm^2, BK dilution 0.1, in double): (-)
- blood in the urine, male (dogs (beagles)): a high level of blood in the urine
- blood in urine from bladder, male (dogs (beagles)): no trace of blood
- blood in urine, male (dogs (beagles)): absence of blood
- glucose in urine, male (dogs (beagles)): absence of glucose
- haemolysis in urine samples, female (dogs (beagles)): no signs of h.ae butted.molysis
- histological examination of the various organs (dogs (beagles)): no alteration due to treatment
- ketonic bodies in urine, male (dogs (beagles)): traces of ketonic bodies
- number of leukocytes (dogs (beagles)): increased
- proteins in urine, male (dogs (beagles)): traces of proteins
- urine sodium and potassium, female (dogs (beagles)): remained almost stable
- urine sodium and potassium, male (dogs (beagles)): showed variations
